Laboratory results: PubChem BioAssay AID2060498 (Molecular Pharmacology Branch, DTP, NCI, 2025)

System: 171881-019-R-J1-PDC tumor spheroids, viability
Assay: Anticancer human tumor 171881-019-R-J1-PDC patient-derived invasive breast carcinoma cell line growth inhibition [GQUAD]
Conditions: spheroids with HUVEC and MSC; for IC50: curve of first compound; for viability, T/C: stronger effect = lower value
Outline: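 Tumor cells were grown as complex spheroids with HUVEC endothelial cells and mesenchymal stem cells as stroma. G-quadruplex stabilizers were combined with targeted agents over half-log dilutions from near the clinical Cmax, or from 10 microM.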

[1] = second compound 0.0316 µM, first compound 0.000999 µM
[2] = second compound 0.0316 µM, first compound 0.00316 µM
[3] = second compound 0.0316 µM, first compound 0.00999 µM
[4] = second compound 0.0316 µM, first compound 0.0316 µM
[5] = second compound 0.0316 µM, first compound 0.0999 µM
[6] = second compound 0.0316 µM, first compound 0.316 µM
[7] = second compound 0.1 µM, first compound 0.000999 µM
[8] = second compound 0.1 µM, first compound 0.00316 µM
[9] = second compound 0.1 µM, first compound 0.00999 µM
[10] = second compound 0.1 µM, first compound 0.0316 µM
[11] = second compound 0.1 µM, first compound 0.0999 µM
[12] = second compound 0.1 µM, first compound 0.316 µM
[13] = second compound 0.316 µM, first compound 0.000999 µM
[14] = second compound 0.316 µM, first compound 0.00316 µM
[15] = second compound 0.316 µM, first compound 0.00999 µM
[16] = second compound 0.316 µM, first compound 0.0316 µM
[17] = second compound 0.316 µM, first compound 0.0999 µM
[18] = second compound 0.316 µM, first compound 0.316 µM
[19] = second compound 1 µM, first compound 0.000999 µM
[20] = second compound 1 µM, first compound 0.00316 µM
[21] = second compound 1 µM, first compound 0.00999 µM
[22] = second compound 1 µM, first compound 0.0316 µM
[23] = second compound 1 µM, first compound 0.0999 µM
[24] = second compound 1 µM, first compound 0.316 µM
[25] = second compound 3.16 µM, first compound 0.000999 µM
[26] = second compound 3.16 µM, first compound 0.00316 µM
[27] = second compound 3.16 µM, first compound 0.00999 µM
[28] = second compound 3.16 µM, first compound 0.0316 µM
[29] = second compound 3.16 µM, first compound 0.0999 µM
[30] = second compound 3.16 µM, first compound 0.316 µM
[31] = second compound 10 µM, first compound 0.000999 µM
[32] = second compound 10 µM, first compound 0.00316 µM
[33] = second compound 10 µM, first compound 0.00999 µM
[34] = second compound 10 µM, first compound 0.0316 µM
[35] = second compound 10 µM, first compound 0.0999 µM
[36] = second compound 10 µM, first compound 0.316 µM
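Also: spheroids exposed to compounds for 7 days.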
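For viability, T/C in this document: 100% = DMSO vehicle control viability.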

`CC[C@@]1(O)C(=O)OCc2c1cc1n(c2=O)Cc2cc3c(CN(C)C)c(O)ccc3nc2-1` + CN(C)c1ccc(Nc2c3ccc(NC(=O)CCN4CCCC4)cc3nc3cc(NC(=O)CCN4CCCC4)ccc23)cc1 gave an IC50 (second compound 0.0316 µM) of 0.255 µM, an IC50 (second compound 0.1 µM) of 0.251 µM and an IC50 (second compound 0.316 µM) of 0.189 µM. The IC50 (second compound 1 µM) was less than 0.000999 µM, the IC50 (second compound 3.16 µM) was less than 0.000999 µM and the IC50 (second compound 10 µM) was less than 0.000999 µM. The viability, T/C [1] was 110%, the viability, T/C [2] was 108% and the viability, T/C [3] was 105%. For the same molecule, the viability, T/C [4] was 99.5%, the viability, T/C [5] was 57.8% and the viability, T/C [6] was 48.3%. For the same molecule, the viability, T/C [7] was 110%, the viability, T/C [8] was 112% and the viability, T/C [9] was 93.9%. For the same molecule, the viability, T/C [10] was 115%, the viability, T/C [11] was 61.9% and the viability, T/C [12] was 47%. The viability, T/C [13] was 85%, the viability, T/C [14] was 85.3% and the viability, T/C [15] was 63.3%. The viability, T/C [16] was 70.7%, the viability, T/C [17] was 60.6% and the viability, T/C [18] was 42.4%. The viability, T/C [19] was 23.9%, the viability, T/C [20] was 14.9% and the viability, T/C [21] was 17.4%. For the same molecule, the viability, T/C [22] was 11.6%, the viability, T/C [23] was 10.3% and the viability, T/C [24] was 14.4%. It also gave a viability, T/C [25] of 2.23%, a viability, T/C [26] of 1.91% and a viability, T/C [27] of 2.49%. For the same molecule, the viability, T/C [28] was 1.45%, the viability, T/C [29] was 2.03% and the viability, T/C [30] was 1.84%. The viability, T/C [31] was 0.21%, the viability, T/C [32] was 1.05% and the viability, T/C [33] was 0.53%. For the same molecule, the viability, T/C [34] was 0.24%, the viability, T/C [35] was 0.6% and the viability, T/C [36] was 0.58%.

Work on `Cn1ncnc1[C@H]1c2n[nH]c(=O)c3cc(F)cc(c23)N[C@@H]1c1ccc(F)cc1` + CN(C)c1ccc(Nc2c3ccc(NC(=O)CCN4CCCC4)cc3nc3cc(NC(=O)CCN4CCCC4)ccc23)cc1 yielded an IC50 (second compound 0.0316 µM) greater than 0.316 µM, an IC50 (second compound 0.1 µM) greater than 0.316 µM and an IC50 (second compound 0.316 µM) greater than 0.316 µM. The IC50 (second compound 1 µM) was less than 0.000999 µM, the IC50 (second compound 3.16 µM) was less than 0.000999 µM and the IC50 (second compound 10 µM) was less than 0.000999 µM. It also gave a viability, T/C [1] of 95.8%, a viability, T/C [2] of 98% and a viability, T/C [3] of 91.5%. It also gave a viability, T/C [4] of 102%, a viability, T/C [5] of 88.9% and a viability, T/C [6] of 96.1%. The viability, T/C [7] was 105%, the viability, T/C [8] was 97.8% and the viability, T/C [9] was 98.8%. The viability, T/C [10] was 100%, the viability, T/C [11] was 72.9% and the viability, T/C [12] was 87.6%. The viability, T/C [13] was 87.7%, the viability, T/C [14] was 84.6% and the viability, T/C [15] was 89%. The viability, T/C [16] was 68.2%, the viability, T/C [17] was 79.3% and the viability, T/C [18] was 77%. It also gave a viability, T/C [19] of 35.8%, a viability, T/C [20] of 24.4% and a viability, T/C [21] of 34.5%. The viability, T/C [22] was 16.9%, the viability, T/C [23] was 22% and the viability, T/C [24] was 19.1%. It also gave a viability, T/C [25] of 2.45%, a viability, T/C [26] of 2.11% and a viability, T/C [27] of 1.92%. The viability, T/C [28] was 1.34%, the viability, T/C [29] was 1.64% and the viability, T/C [30] was 2.41%. For the same molecule, the viability, T/C [31] was 0.29%, the viability, T/C [32] was 0.56% and the viability, T/C [33] was 0.56%. The viability, T/C [34] was 0.4%, the viability, T/C [35] was 0.71% and the viability, T/C [36] was 1.05%.
